Results from US20190255048A1, “PYRIMIDINE COMPOUND OR SALT THEREOF IN APPLICATION FOR MANUFACTURING PHARMACEUTICAL PRODUCT FOR PREVENTING AND/OR TREATING FLT3-RELATED DISEASE OR DISORDER” (SHENZHEN HAIBIN PHARMACEUTICAL CO., LTD, priority 2016, published 2019).

How the values were obtained:
FLT3 kinase = target: T1, FLT3 kinase (Homo sapiens, UniProt P36888); assay: Activity of inhibiting FLT3 kinase (fluorescein labeled peptide kinase assay); type: biochemical; conditions: in vitro kinase assay, 28° C.
T1 sequence (P36888 27-993): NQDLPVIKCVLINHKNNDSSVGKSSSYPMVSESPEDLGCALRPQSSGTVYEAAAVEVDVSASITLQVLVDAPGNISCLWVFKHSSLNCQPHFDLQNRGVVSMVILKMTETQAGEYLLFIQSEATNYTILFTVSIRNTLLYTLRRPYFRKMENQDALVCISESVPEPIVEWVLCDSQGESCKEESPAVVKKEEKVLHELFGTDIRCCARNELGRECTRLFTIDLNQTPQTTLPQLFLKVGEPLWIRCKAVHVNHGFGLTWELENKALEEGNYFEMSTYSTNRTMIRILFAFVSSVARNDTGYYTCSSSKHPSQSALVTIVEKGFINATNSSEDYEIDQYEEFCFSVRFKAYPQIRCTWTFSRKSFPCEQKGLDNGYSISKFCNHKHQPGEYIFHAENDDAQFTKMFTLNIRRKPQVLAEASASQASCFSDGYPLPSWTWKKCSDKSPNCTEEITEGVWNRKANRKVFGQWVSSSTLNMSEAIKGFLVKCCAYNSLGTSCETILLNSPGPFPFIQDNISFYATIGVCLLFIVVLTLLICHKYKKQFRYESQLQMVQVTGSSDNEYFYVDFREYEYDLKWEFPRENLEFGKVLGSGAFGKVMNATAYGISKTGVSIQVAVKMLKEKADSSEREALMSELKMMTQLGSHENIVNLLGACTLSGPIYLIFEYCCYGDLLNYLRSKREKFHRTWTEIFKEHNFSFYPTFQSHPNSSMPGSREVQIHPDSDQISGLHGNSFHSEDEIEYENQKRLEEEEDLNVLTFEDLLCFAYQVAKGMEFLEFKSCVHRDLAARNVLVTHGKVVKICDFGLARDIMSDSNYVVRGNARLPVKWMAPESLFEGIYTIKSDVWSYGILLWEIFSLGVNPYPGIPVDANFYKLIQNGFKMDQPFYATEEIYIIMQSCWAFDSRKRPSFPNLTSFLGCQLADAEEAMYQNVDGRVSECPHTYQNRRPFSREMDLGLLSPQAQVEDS
Description: Activity of Inhibiting FLT3 Kinase
1. Preparation of 1 × Kinase Buffer and Termination Buffer:
(1) MnCl2-free 1× kinase buffer: 50 mM HEPES, pH 7.5, 0.0015% Brij-35, 10 mM MgCl2, 2 mM DTT;
(2) Termination buffer: 100 mM HEPES, pH 7.5, 0.015% Brij-35, 0.2% Coating Reagent #3, 50 mM EDTA.
2. Preparation of compounds for testing kinase: the compounds are diluted continuously.
(1) the compound was diluted to 50 times the maximum final concentration with 100% DMSO. […] of the solution containing the compound at this concentration was transferred to one hole of 96-well plate;
(2)10 concentrations of compounds were prepared by diluting 20 mL original solution with 60 mL DMSO;
(3) […] solution of 100% DMSO was added into two empty holes as compound-free control and enzyme-free control; (4) a transitional plate was prepared, 10 mL compounds at different concentrations were transferred from the original plate to the transitional plate respectively, 90 mL 1× kinase buffer was added, and then mixed under oscillation for 10 minutes;
(5) preparation of an experimental plate: 5 mL solution containing compounds was transferred from the hole of the transitional plate of the 96-well plate to the corresponding hole of 384-well plate.
(1) Preparation of 2.5× enzyme solution: enzyme was added to the 1× kinase buffer;
(2) Preparation of 2.5× peptide solution: a fluorescein labeled peptide and ATP were added to the 1× kinase buffer;
(3) 10 mL 2.5× enzyme solution was added to an experimental 384-well plate containing the compound solution with a concentration of 10% containing 5 mL DMSO and incubated at room temperature for 10 minutes;
(4) 10 mL 2.5× peptide solution was added to an experimental 384-well plate;
(5) kinase reaction and termination: Incubation was carried out at 28° C. for certain time, 25 mL termination buffer was added to terminate the reaction.
Data was read and collected.
(1) detected data was copied and converted
(2) data was converted to inhibitory rate
Inhibitory rate=(Maximum Value−Sample Value)/(Maximum Value−Minimum Value)*100;
wherein “Maximum Value” is the value of DMSO control; “Minimum Value” is the value of kinase-free control hole.
(3) the data was input an analysis software to obtain IC50 value.

[1] = system: subcutaneous xenograft tumor of human MV-4-11; assay: Therapeutic effects on subcutaneous xenograft tumor of human MV-4-11 in nude mice; type: in vivo, BALB/cA-nude mice; conditions: MV-4-11 subcutaneous xenograft, 15 mg/kg intraperitoneal injection, 3 times a day for 21 days
Description: Preparation of test samples: all samples were prepared with 5% anhydrous ethanol, 5% Cremophor EL and 90% physiological saline.
Animals: BALB/cA-nude mice, 6-7 weeks, female ♀ purchased from Shanghai Lingchang Biotechnology Co., Ltd. Production license number was SC×K(Hu)2013-0018; animal certification number was 2013001810589.
Feeding environment: SPF Level.
Experiment steps: human acute myeloid leukemia cells MV-4-11 were inoculated subcutaneously in nude mice, after the tumor grows to 80-150 mm^3, animals were randomly divided into groups with 6 mice each group. The dosage was 15 mg/kg, the drugs were administrated by intraperitoneal injection, 3 times a day for 21 days. The volume of tumor was measured, the weight of mouse was weighed and the data were recorded.
The formula for calculating the volume of tumor (V) was: […]
Wherein a and b represented length and width respectively.
T/C (%)=(T−T0)/(C−C0)×100
Wherein T and C were the volume of tumor when the experiment was completed; T0 and C0 were the volume of tumor when the experiment was started.
The inhibited rate of tumor was calculated, the results were shown as Table 4.

[2] = system: mouse TEL-FLT3-BaF3 (stably expressing FLT3 kinase); assay: Effects on proliferation of cells (Cell Titer-Glo), TEL-FLT3-BaF3; type: cell-based; conditions: TEL-FLT3-BaF3, incubated for 72 hours
Description: (§1) This example tested the effects of the compounds of the present invention (the compound shown in Formula (I), hydrochloride salt, phosphate, mesylate, lactate, acetate, sulphate, and hydrobromide thereof prepared in EXAMPLES 1-8 respectively) on proliferation of tumor cells, and further evaluated the inhibitory effects of the compounds on proliferation of tumor cells and selectivity of the compounds in inhibiting proliferation of tumor cells.
(8) mouse TEL-FLT3-BaF3 (stably expressing FLT3 kinase);
(§2) The compounds at different concentration (0.000508 μM, 0.00152 μM, 0.00457 μM, 0.0137 μM, 0.0411 μM, 0.123 μM, 0.370 μM, 1.11 μM, 3.33 μM, 10 μM in DMSO) were added to the above-mentioned cells respectively, incubated for 72 hours, Cell Titer-Glo (Promega, United States of America) Chemiluminescence Kit was used to quantify ATP in living cells to detect the number of living cells, the results were shown as Table 3

[3] = system: human acute myeloid leukemia cell strain U937 (expressing wild-type FLT3 gene); assay: Effects on proliferation of tumor cells (Cell Titer-Glo), U937; type: cell-based
Description: as §1
(5) human acute myeloid leukemia cell strain U937 (expressing wild-type FLT3 gene);
as §2

[4] = system: mouse TEL-BaF3-FLT3-D835Y (stably expressing FLT3D835Y mutant activated kinase); assay: Effects on proliferation of cells (Cell Titer-Glo), TEL-BaF3-FLT3-D835Y; type: cell-based; conditions: incubated for 72 hours
Description: as §1
(7) mouse TEL-BaF3-FLT3-D835Y (stably expressing FLT3D835Y mutant activated kinase);
as §2

[5] = system: mouse BaF3-FLT3-ITD-D835Y (stably expressing FLT3/ITD D835Y mutant activated kinase); assay: Effects on proliferation of cells (Cell Titer-Glo), BaF3-FLT3-ITD-D835Y; type: cell-based; conditions: incubated for 72 hours
Description: as §1
(9) mouse BaF3-FLT3-ITD-D835Y (stably expressing FLT3/ITD D835Y mutant activated kinase);
as §2

[6] = system: human acute myeloid leukemia cell strain OCI-AML-3 (expressing FLT3A680V mutant gene); assay: Effects on proliferation of tumor cells (Cell Titer-Glo), OCI-AML-3; type: cell-based; conditions: OCI-AML-3, incubated for 72 hours
Description: as §1
(4) human acute myeloid leukemia cell strain OCI-AML-3 (expressing FLT3A680V mutant gene);
as §2

[7] = system: human acute myeloid leukemia cell strain MOLM-14 (expressing FLT3/ITD mutant gene and wild-type FLT3 gene); assay: Effects on proliferation of tumor cells (Cell Titer-Glo), MOLM-14; type: cell-based; conditions: MOLM-14, incubated for 72 hours
Description: as §1
(3) human acute myeloid leukemia cell strain MOLM-14 (expressing FLT3/ITD mutant gene and wild-type FLT3 gene);
as §2

[8] = system: mouse TEL-BaF3-FLT3/ITD (stably expressing FLT3/ITD mutant activated kinase); assay: Effects on proliferation of cells (Cell Titer-Glo), TEL-BaF3-FLT3/ITD; type: cell-based; conditions: incubated for 72 hours
Description: as §1
(6) mouse TEL-BaF3-FLT3/ITD (stably expressing FLT3/ITD mutant activated kinase);
as §2

[9] = system: mouse BaF3-FLT3-ITD-F691L (stably expressing FLT3/ITD F691L mutant activated kinase); assay: Effects on proliferation of cells (Cell Titer-Glo), BaF3-FLT3-ITD-F691L; type: cell-based; conditions: incubated for 72 hours
Description: as §1
(10) mouse BaF3-FLT3-ITD-F691L (stably expressing FLT3/ITD F691L mutant activated kinase).
as §2

[10] = system: human acute monocytic leukemia cell strain MV4-11 (expressing FLT3/ITD mutant gene); assay: Effects on proliferation of tumor cells (Cell Titer-Glo), MV4-11; type: cell-based; conditions: MV4-11, incubated for 72 hours
Description: as §1
(1) human acute monocytic leukemia cell strain MV4-11 (expressing FLT3/ITD mutant gene);
as §2

[11] = system: human acute myeloid leukemia cell strain MOLM-13 (expressing FLT3/ITD mutant gene and wild-type FLT3 gene); assay: Effects on proliferation of tumor cells (Cell Titer-Glo), MOLM-13; type: cell-based; conditions: MOLM-13, incubated for 72 hours
Description: as §1
(2) human acute myeloid leukemia cell strain MOLM-13 (expressing FLT3/ITD mutant gene and wild-type FLT3 gene);
as §2

Row | SMILES | IC50 (FLT3 kinase) [nM] | IC50 [2] [µM] | IC50 ([3]; U937, incubated for 72 hours) [µM] | IC50 [4] [µM] | IC50 [5] [µM] | IC50 [6] [µM] | IC50 [7] [µM] | IC50 [8] [µM] | IC50 [9] [µM] | IC50 [10] [µM] | IC50 [11] [µM] | Inhibited Rate of Tumor (%) [1] [%] | other results
1 | CS(=O)(=O)O.Nc1sc(-c2c(F)cccc2F)nc1C(=O)Nc1cncnc1OCC1CCNCC1 [Mesylate of compound of Formula (I)] | 28 | 0.05 | 7.42 | 0.31 | 0.55 | 0.06 | 0.13 | 0.02 | 0.77 | 0.43 | 0.45 | 74 | –
2 | Nc1sc(-c2c(F)cccc2F)nc1C(=O)Nc1cncnc1OCC1CCNCC1 [Compound of Formula (I), 5-amino-2-(2,6-difluorophenyl)-N-(4-(piperidine-4-methoxy)pyrimidine-5-) thiazole-4-formamide] | 40 | – | – | – | – | – | – | – | – | – | – | 66 | IC50 ([2]; Mus musculus): 0.12 µM; IC50 ([3]; Homo sapiens, U-937, U937, incubated for 72 hours): ≥ 13.4 µM; IC50 ([4]; Mus musculus): 0.32 µM; IC50 ([5]; Mus musculus): 0.61 µM; IC50 ([6]; Homo sapiens): 0.34 µM; IC50 ([7]; Homo sapiens): 0.27 µM; IC50 ([8]; Mus musculus): 0.11 µM; IC50 ([9]; Mus musculus): 0.93 µM; IC50 ([10]; Homo sapiens): 0.51 µM; IC50 ([11]; Homo sapiens): 0.52 µM
3 | CC(O)C(=O)O.Nc1sc(-c2c(F)cccc2F)nc1C(=O)Nc1cncnc1OCC1CCNCC1 [Lactate of compound of Formula (I)] | 25 | 0.06 | 9.05 | 0.13 | 0.34 | 0.08 | 0.31 | 0.04 | 0.64 | 0.34 | 0.28 | 71 | –

More lines, in order of falling IC50 (FLT3 kinase), values ahead:

Row | IC50 (FLT3 kinase) [nM] | IC50 [2] [µM] | IC50 ([3]; U937, incubated for 72 hours) [µM] | IC50 [4] [µM] | IC50 [5] [µM] | IC50 [6] [µM] | IC50 [7] [µM] | IC50 [8] [µM] | IC50 [9] [µM] | IC50 [10] [µM] | IC50 [11] [µM] | SMILES | Inhibited Rate of Tumor (%) [1] [%] | other results
4 | 39 | 0.16 | 4.66 | 0.31 | 0.66 | 0.11 | 0.13 | 0.02 | 0.76 | 0.42 | 0.51 | Br.Nc1sc(-c2c(F)cccc2F)nc1C(=O)Nc1cncnc1OCC1CCNCC1 [Hydrobromide of compound of Formula (I)] | 66 | –
5 | 28 | 0.05 | 3.56 | 0.22 | 0.23 | 0.21 | 0.22 | 0.04 | 0.56 | 0.23 | 0.23 | Nc1sc(-c2c(F)cccc2F)nc1C(=O)Nc1cncnc1OCC1CCNCC1.O=S(=O)(O)O [Sulphate of compound of Formula (I)] | 68 | –
6 | 27 | 0.03 | 2.09 | 0.32 | 0.53 | 0.32 | 0.12 | 0.02 | 0.94 | 0.41 | 0.43 | CC(=O)O.Nc1sc(-c2c(F)cccc2F)nc1C(=O)Nc1cncnc1OCC1CCNCC1 [Acetate of compound of Formula (I)] | 77 | –
7 | 15 | 0.03 | 6.21 | 0.21 | 0.32 | 0.05 | 0.08 | 0.02 | 0.45 | 0.13 | 0.12 | Cl.Nc1sc(-c2c(F)cccc2F)nc1C(=O)Nc1cncnc1OCC1CCNCC1 [Hydrochloride salt of compound of Formula (I)] | 86 | –
